Measurements from paper PMC3815952 (Microbial biotechnology, 2009).

Assays:
RHA1_ro00230 = RHA1_ro00230 (Rhodococcus jostii, UniProt Q0SK70); experiment: calorimetry, non-linear regression; assay type: biochemical; details: Tris-SO4 pH 8.5, 30°C
RPA1163 = RPA1163 (Rhodopseudomonas palustris, UniProt Q6NAM1); experiment: calorimetry, non-linear regression; assay type: biochemical; details: Tris-SO4 pH 8.5, 30°C
Bcen2424–2051 = details: read-out: Substrates / Chloroacetate / KM; Tris-SO4 pH 8.5, 30°C
Adeh3811 = experiment: calorimetry, non-linear regression; assay type: biochemical, Anaeromyxobacter dehalogenans; details: Tris-SO4 pH 8.5, 30°C
Bpro4516 = details: Tris-SO4 pH 8.5, 30°C

Chain of RHA1_ro00230 (Q0SK70 1-254): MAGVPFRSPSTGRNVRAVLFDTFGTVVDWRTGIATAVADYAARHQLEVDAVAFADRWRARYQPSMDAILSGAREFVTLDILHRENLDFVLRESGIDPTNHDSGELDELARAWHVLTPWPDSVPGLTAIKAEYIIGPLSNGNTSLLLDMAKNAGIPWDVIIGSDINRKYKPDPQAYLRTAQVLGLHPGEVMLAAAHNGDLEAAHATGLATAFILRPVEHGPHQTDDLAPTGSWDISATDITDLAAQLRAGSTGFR
Chain of RPA1163 (Q6NAM1 whole entry): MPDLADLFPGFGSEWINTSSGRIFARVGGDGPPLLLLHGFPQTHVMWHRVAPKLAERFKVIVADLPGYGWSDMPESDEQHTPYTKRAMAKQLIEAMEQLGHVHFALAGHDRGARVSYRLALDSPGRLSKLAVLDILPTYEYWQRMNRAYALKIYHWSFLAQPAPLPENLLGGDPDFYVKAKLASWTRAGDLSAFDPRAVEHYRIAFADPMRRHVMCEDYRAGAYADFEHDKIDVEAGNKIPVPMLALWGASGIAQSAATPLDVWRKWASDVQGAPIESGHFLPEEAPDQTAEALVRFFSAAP

Structure (SMILES)	Substrates / Chloroacetate / KM (μM) (RHA1_ro00230)	Substrates / Chloroacetate / KM (μM) (RPA1163)	Km (Bcen2424–2051)	Substrates / Fluoroacetate / KM (μM) (Adeh3811)	Substrates / Fluoroacetate / KM (μM) (RHA1_ro00230)	Substrates / Fluoroacetate / KM (μM) (RPA1163)	Substrates / Fluoroacetate / KM (μM) (Bpro4516)
O=C(O)CCl [chloroacetate]	19 000 ± 2000 µM	1 400 ± 400 µM	17 ± 2 µM	–	–	–	–
O=C(O)CF [fluoroacetate]	–	–	–	13 500 ± 300 µM	20 000 ± 2000 µM	3 300 ± 200 µM	19 000 ± 2000 µM
